Laboratory results published in patent US10143718B2, “Covalent inhibitors of dual oxidase 1 (DUOX 1)” (The University of Vermont and State Agricultural College, priority 2015, dated 2018).
Entries after “also recorded” stand apart in the source; their conditions may differ.

Assays:
DUOX1 [1] = target: T1, DUOX1 (Homo sapiens, UniProt Q9NRD9); test: Extracellular H2O2 production by HBE1 cells as a measure of DUOX1 activation (lactoperoxidase/tyrosine, HPLC); type: cell-based; conditions: for ATP-induced H2O2 production: electrophile 30 min prior to ATP stimulation, media collected after 10 min, 1-30 micromolar for food-derived electrophiles
T1 construct: endogenous in cells; host or cells: HBE1 (immortalized human bronchial epithelial cells)
T1 sequence (Q9NRD9 22-1551): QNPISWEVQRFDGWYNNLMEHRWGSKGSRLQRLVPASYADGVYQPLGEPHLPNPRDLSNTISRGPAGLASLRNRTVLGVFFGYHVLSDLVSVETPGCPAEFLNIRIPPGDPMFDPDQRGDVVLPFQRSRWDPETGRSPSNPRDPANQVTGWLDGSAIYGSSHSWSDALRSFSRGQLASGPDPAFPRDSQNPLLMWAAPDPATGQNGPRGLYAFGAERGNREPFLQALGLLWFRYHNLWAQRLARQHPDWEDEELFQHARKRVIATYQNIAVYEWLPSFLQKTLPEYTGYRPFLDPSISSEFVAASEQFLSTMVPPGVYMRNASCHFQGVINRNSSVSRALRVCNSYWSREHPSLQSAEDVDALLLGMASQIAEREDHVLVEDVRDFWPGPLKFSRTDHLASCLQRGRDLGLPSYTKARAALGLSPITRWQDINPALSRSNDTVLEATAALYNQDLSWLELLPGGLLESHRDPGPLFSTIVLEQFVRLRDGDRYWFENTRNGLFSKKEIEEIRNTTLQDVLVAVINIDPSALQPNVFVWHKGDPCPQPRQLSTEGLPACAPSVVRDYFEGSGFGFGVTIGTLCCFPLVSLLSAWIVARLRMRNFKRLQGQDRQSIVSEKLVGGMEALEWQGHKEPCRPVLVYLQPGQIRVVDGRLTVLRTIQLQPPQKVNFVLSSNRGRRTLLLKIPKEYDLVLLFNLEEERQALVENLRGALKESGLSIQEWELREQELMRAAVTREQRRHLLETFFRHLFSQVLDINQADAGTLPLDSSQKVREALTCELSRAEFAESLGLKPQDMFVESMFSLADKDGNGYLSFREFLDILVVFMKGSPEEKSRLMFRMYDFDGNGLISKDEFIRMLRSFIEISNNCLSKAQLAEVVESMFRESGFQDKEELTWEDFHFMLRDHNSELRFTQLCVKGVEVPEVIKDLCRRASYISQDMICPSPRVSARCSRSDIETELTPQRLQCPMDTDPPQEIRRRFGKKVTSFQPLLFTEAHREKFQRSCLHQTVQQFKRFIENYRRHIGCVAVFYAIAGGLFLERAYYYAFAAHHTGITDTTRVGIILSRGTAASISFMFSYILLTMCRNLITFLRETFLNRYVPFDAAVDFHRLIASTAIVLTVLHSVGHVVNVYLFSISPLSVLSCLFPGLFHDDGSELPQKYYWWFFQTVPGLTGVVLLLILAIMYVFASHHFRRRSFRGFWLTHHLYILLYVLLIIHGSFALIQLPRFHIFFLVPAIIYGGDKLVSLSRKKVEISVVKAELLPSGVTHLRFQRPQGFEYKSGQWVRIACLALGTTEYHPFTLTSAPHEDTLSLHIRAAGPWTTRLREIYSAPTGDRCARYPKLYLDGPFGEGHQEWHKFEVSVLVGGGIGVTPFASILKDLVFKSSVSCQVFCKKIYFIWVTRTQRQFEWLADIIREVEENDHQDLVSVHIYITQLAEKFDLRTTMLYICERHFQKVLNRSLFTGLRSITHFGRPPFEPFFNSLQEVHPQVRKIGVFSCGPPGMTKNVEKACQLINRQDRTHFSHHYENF
From the text: (§1) Based on identifying the involvement of Ca^2+-dependent DUOX1 activation and subsequent EGFR activation in allergen-induced IL-33 secretion from epithelial cells), the impact of acrolein exposure on allergen-induced Ca^2+ increases, extracellular H2O2 production (as a measure of DUOX1 activation) and EGFR tyrosine phosphorylation (as an indicator of EGFR activation) were studied.
Preliminary studies of DUOX1 targeting by electrophiles. Acrolein (2,3-propenal) is a highly reactive electrophile and a well-recognized environmental pollutant. In this example, other electrophilic compounds with similar chemical reactivity were determined to be capable of inhibiting allergen-induced DUOX1 activation. These studies were performed using immortalized human bronchoepithelial cells (HBE1) which were cultured and exposed to different electrophiles at various doses for 30 min prior to cell stimulation with HDM or with ATP (a known activator of DUOX1). Conditioned culture media was collected 10 min after cell stimulation and mixed for 15 min with 10 micrograms/mL lactoperoxidase (Sigma) and 1 mM tyrosine (Gibco), which results in formation of fluorescent dityrosine product as a function of H2O2 concentration, and was analyzed by HPLC with fluorescence detection and compared with exogenous standards based on similarly treated stock solutions of H2O2. The resulting data were corrected for basal H2O2 production by unstimulated cells and ATP-dependent H2O2 production in the presence of electrophiles were expressed relative to that by ATP alone (which was set at 100%).

[2] = tested on: mouse tracheal epithelial cells; test: Allergen-induced cytokine secretion from cultured mouse tracheal epithelial cells; type: cell-based; conditions: for HDM-induced IL-33 secretion (culture media): mouse tracheal epithelial cells, pretreated 30 minutes, then HDM for 2 hrs
Protocol: (§2) Cells were pretreated with acrolein (ACR), cinnamaldehyde (CIN), curcumin (Curc) or sulforaphane (SFN) for 30 minutes and then stimulated with HDM for 2 hrs. IL-33 was measured in culture media.

[3] = tested on: allergic inflammation and mucus metaplasia; test: Acrolein exposure in a mouse model of allergic asthma; type: in vivo; conditions: non-toxic doses of acrolein
EGFR = test: Allergen-induced EGFR tyrosine phosphorylation (EGFR activation); type: cell-based; conditions: non-toxic concentrations (3-30 micromolar)
From the text: as §1

DUOX1 [4] = target: T1, DUOX1; test: ARP labeling of DUOX1 in HBE1 cells (biotin tag, avidin purification, western blot); type: binding; conditions: 0, 10, or 30 micromolar for 30 minutes
From the text: Since these various electrophiles act primarily by targeting susceptible cysteine residues by Michael addition, it was believed that they may directly target DUOX1 protein on one of its accessible cysteine residues within its extracellular peroxidase homology (PHD) domain. […] Moreover, since the PHD domain is unique to DUOX and not present in other NADPH oxidase isoforms, this targeting approach would avoid non-selective actions on these other isoforms, a common problem with most NADPH oxidase inhibitors currently in development. To determine whether acrolein-mediated inhibition of DUOX1 activity (FIG. 4) was associated with direct targeting of DUOX1 protein, HBE1 cells were treated with 0, 10, or 30 micromolar acrolein for 30 minutes and derivatized cell lysates with aldehyde reactive probe (ARP; Pierce), which converts acrolein-induced Michael adducts to induce a biotin tag. Biotin-tagged proteins were subsequently purified by avidin chromatography and collected biotin-tagged proteins (eluates) were then analyzed by 10% SDS-PAGE and western blotting with an alpha-DUOX1 antibody. Whole cell lysate were analyzed accordingly as loading controls.

[5] = tested on: innate airway responses to HDM; test: Acrolein inhalation, then allergen challenge; BAL cytokines analyzed; type: in vivo; conditions: mice; acrolein 5 ppm, 4 hrs; then HDM (50 micrograms) or Alternaria alternata challenge; BAL 1 hour later
Protocol: Electrophilic compounds can suppress allergic inflammation and innate allergen responses. […] Mice were exposed to acrolein (5 ppm; 4 hrs, and subsequently challenged with HDM (50 micrograms), and BAL cytokines were analyzed 1 hour later.

cellular GSH = test: Cellular GSH depletion; type: cell-based; conditions: at concentrations inhibiting allergen-induced IL-33 secretion and H2O2 production
[6] = tested on: allergen-mediated Ca^2+ increases; test: Allergen-induced Ca2+ increases in epithelial cells; type: cell-based; conditions: non-toxic concentrations (3-30 micromolar)
From the text: as §1

[7] = tested on: human bronchial epithelial cell line HBE1; test: Allergen-induced cytokine secretion from HBE1 cells; type: cell-based; conditions: acrolein pretreatment
Protocol: as §2

SMILES | ATP-induced H2O2 production (DUOX1 [1]) | HDM-induced IL-33 secretion (culture media) [2] | further results
C=CS(=O)(=O)Oc1ccccc1 [phenyl vinyl sulfonate] | dose-dependent inhibition | – | –
C=CS(=O)(=O)c1ccccc1 [phenyl vinyl sulfone] | Inhibitory effects | – | –
O=C/C=C/c1ccccc1 [cinnamaldehyde, (2E)-3-phenylprop-2-enal] | capable of inhibiting ATP-mediated H2O2 production; also recorded: dose-dependent inhibition | inhibited HDM-induced IL-33 secretion | –
C=CC=O [acrolein, 2,3-propenal] | dose-dependent inhibition | inhibited HDM-induced IL-33 secretion | allergen-induced secretion of IL-33, IL-1α or IL-17E ([2]; cultured tracheal epithelial cells from mice, acrolein pretreatment): inhibits allergen-induced secretion of IL-33, IL-1α or IL-17E in a dose-dependent manner; allergic inflammation and mucus metaplasia [3]: dramatically suppress allergic inflammation and mucus metaplasia; allergen-induced EGFR autophosphorylation (EGFR): markedly suppressed allergen-induced EGFR autophosphorylation; ARP labeling of DUOX1 (direct adduct with DUOX1) (DUOX1 [4]): induced dose-dependent ARP labeling of DUOX1; production of IL-33, IL-1α or IL-17E (BAL cytokines) [5]: dramatically minimized production of IL-33, IL-1α or IL-17E; cellular GSH depletion (cellular GSH): occurred in the absence of cellular GSH depletion; allergen-induced extracellular H2O2 production (DUOX1 [1]; non-toxic concentrations (3-30 micromolar)): markedly suppressed; also recorded: inhibits allergen-induced H2O2 production; allergen-mediated Ca^2+ increases [6]: did not affect allergen-mediated Ca^2+ increases; allergen-induced secretion of IL-33, IL-1α or IL-17E [7]: inhibits allergen-induced secretion of IL-33, IL-1α or IL-17E in a dose-dependent manner
C[S+]([O-])CCCCN=C=S (stereo not shown) [sulforaphane, 1-Isothiocyanato-4-methylsulfinylbutane] | capable of inhibiting ATP-mediated H2O2 production; also recorded: dose-dependent inhibition | inhibited HDM-induced IL-33 secretion | –
COc1cc(/C=C/C(=O)CC(=O)/C=C/c2ccc(O)c(OC)c2)ccc1O [curcumin, (1E,6E)-1,7-Bis(4-hydroxy-3-methoxyphenyl)-1,6-heptadiene-3,5-dione] | capable of inhibiting ATP-mediated H2O2 production | inhibited HDM-induced IL-33 secretion | –
